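Cultured in 96-well plates, cells were exposed to test compound for 48 hours across five concentrations. GI50 is the concentration that inhibits growth by half. At the TGI there is no net growth.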
Columns and labels:
Experiment in all cases: inhibition of tumour cell growth, NCI panel, 48 h
SK-MEL-2 melanoma = test system: SK-MEL-2 melanoma
OVCAR-8 ovarian = test system: OVCAR-8 ovarian
SK-MEL-5 melanoma = test system: SK-MEL-5 melanoma
SNB-78 CNS = test system: SNB-78 CNS
HOP-92 NSCLC = test system: HOP-92 NSCLC
NCI-H226 lung = test system: NCI-H226 lung
ACHN renal = test system: ACHN renal
786-0 renal = test system: 786-0 renal
DMS 273 small cell lung = test system: DMS 273 small cell lung
MCF7 breast = test system: MCF7 breast

Row | Structure (SMILES) | TGI (SK-MEL-2 melanoma) [µM] | TGI (OVCAR-8 ovarian) [µM] | TGI (SK-MEL-5 melanoma) [µM] | TGI (SNB-78 CNS) [µM] | TGI (HOP-92 NSCLC) [µM] | TGI (NCI-H226 lung) [µM] | TGI (ACHN renal) [µM] | TGI (786-0 renal) [µM] | TGI (DMS 273 small cell lung) [µM] | GI50 (SK-MEL-2 melanoma) [µM] | GI50 (MCF7 breast) [µM] | TGI (MCF7 breast) [µM] | GI50 (OVCAR-8 ovarian) [µM] | GI50 (SK-MEL-5 melanoma) [µM] | GI50 (HOP-92 NSCLC) [µM] | GI50 (NCI-H226 lung) [µM] | GI50 (ACHN renal) [µM] | GI50 (786-0 renal) [µM] | GI50 (SNB-78 CNS) [µM]
1 | Cc1ccc(/C=C/C(=O)c2sc(-c3nc(C)c(C(=O)/C=C/c4ccc(C)cc4)s3)nc2C)cc1 | > 100 | > 100 | > 100 | > 100 | > 100 | > 100 | > 100 | > 100 | > 100 | – | – | – | – | – | – | – | – | – | –
2 | Cc1cc(Cl)ccc1NC(=O)C(=O)Cc1nc2ccccc2o1 | > 100 | > 100 | > 100 | > 100 | > 100 | – | > 100 | > 100 | > 100 | – | – | – | – | – | – | – | – | – | –
3 | O=C(Nc1nc(=S)c2c(ncn2CCOC(=O)c2ccccc2)[nH]1)c1ccccc1 | > 100 | > 100 | > 100 | > 100 | > 100 | > 100 | > 100 | > 100 | > 100 | – | – | – | – | – | – | – | – | – | –
4 | CN(C)CC1CCCC/C1=N/OC(=O)c1ccc(Cl)cc1 (centres undefined) | > 100 | > 100 | – | > 100 | > 100 | > 100 | > 100 | > 100 | > 100 | – | – | – | – | – | – | – | – | – | –
5 | Cc1cc(N(CCC#N)CCC#N)ccc1N=Nc1ccc(C(=O)O)cc1 | > 100 | > 100 | > 100 | > 100 | – | > 100 | > 100 | > 100 | > 100 | – | – | – | – | – | – | – | – | – | –
6 | CCOC(=O)C(=[N+]=[N-])[Si](C)(C)C | > 100 | > 100 | > 100 | > 100 | > 100 | – | > 100 | > 100 | > 100 | – | – | – | – | – | – | – | – | – | –
7 | NC(=O)C12CC3CC(CC(F)(C3)C1)C2 | > 100 | > 100 | – | > 100 | > 100 | – | > 100 | > 100 | > 100 | – | – | – | – | – | – | – | – | – | –
8 | CCN1CCC(O)(c2ccc(OC)cc2)C(C(=O)c2ccc(OC)cc2)C1 (centres undefined) | 38.1 | 43.4 | 29 | 59.3 | – | > 100 | 30.1 | 26.8 | 50.2 | – | – | – | – | – | – | – | – | – | –
9 | Cc1ccc(NC(=O)CCc2cc(C(C)(C)C)nc(=S)[nH]2)cc1C | > 100 | > 100 | > 100 | > 100 | > 100 | > 100 | > 100 | > 100 | > 100 | – | – | – | – | – | – | – | – | – | –
10 | COc1cc2c3c(n(C)c(=O)c2cc1OC)-c1cc2c(cc1/C3=C\CN)OCO2 | > 100 | > 51.9 | 2.32 | – | > 77.1 | 15.2 | 0.625 | 17.3 | – | 24.1 | 0.236 | > 31.6 | 0.774 | 0.296 | 2.09 | 0.515 | 0.037 | 0.314 | –
11 | COc1c(OC[C@H](O)CN2CCOCC2)ccc2c3n(c(=NC(=O)c4cccnc4C)nc12)CCN3 | > 50 | > 50 | > 50 | – | 10.1 | > 50 | > 50 | > 50 | – | > 50 | 0.0751 | > 50 | > 50 | > 50 | 0.0637 | 15.4 | 0.411 | 0.399 | –
12 | CO/N=C(\COc1ccc2c(c1)oc(=O)c1cc(OC)ccc12)c1ccc(OC)cc1 | > 100 | > 100 | > 100 | – | > 100 | > 100 | > 100 | > 100 | – | > 100 | > 100 | > 100 | > 100 | > 100 | > 100 | > 100 | > 100 | > 100 | –
13 | OCC1OC(c2nc(C3=NCCCN3)cs2)C(O)C1O (centres undefined) | > 100 | > 100 | – | > 100 | > 100 | > 100 | > 100 | > 100 | > 100 | – | – | – | – | – | – | – | – | – | –
14 | [N-]=[N+]=N[C@H]1C[C@@H](CO)O[C@H]1n1cnc2c(N)ncnc21 | > 100 | > 100 | > 100 | > 100 | > 100 | > 100 | > 100 | > 100 | > 100 | – | – | – | – | – | – | – | – | – | –
15 | CCCc1nc(NC#N)nc(C(=O)Nc2ccccc2)c1CC | > 100 | > 100 | > 100 | > 100 | > 100 | > 100 | > 100 | > 100 | > 100 | – | – | – | – | – | – | – | – | – | –
16 | CC1c2c(Cl)nc3ccccc3c2Oc2c1c(Cl)nc1ccccc21 | > 100 | > 100 | > 100 | > 100 | > 100 | – | > 100 | > 100 | > 100 | – | – | – | – | – | – | – | – | – | –
17 | C=C(C)[C@@H]1CC[C@]2(C)[C@H](CC=C3[C@@H]4CC(C)(C)CC[C@]4(C(N)=O)CC[C@]32C)[C@@]1(C)CCC#N | > 100 | > 100 | 3.31 | – | 6.62 | 9.41 | 51.2 | 4.12 | – | 5.28 | 2.81 | 24.5 | 5.24 | 1.83 | 2.37 | 2.94 | 3.01 | 2 | –
18 | O=C(/C=C/c1cccc2ccccc12)c1ccccc1Cl | 34.7 | 26.7 | 30.8 | 40.9 | 26.4 | > 100 | 31.3 | 27.2 | 31.5 | – | – | – | – | – | – | – | – | – | –
19 | CCC[CH2][Sn]([Cl])([CH2]CCC)[CH2]CCC | 0.24 | 0.287 | 0.808 | 0.313 | 0.188 | – | 0.276 | 0.21 | – | 0.112 | – | – | 0.145 | 0.192 | 0.0452 | – | 0.144 | 0.087 | 0.129
20 | CCOC(=O)Nc1ccc(C)c(NC(=O)OCC)c1 | > 100 | > 100 | > 100 | – | > 100 | > 100 | > 100 | > 100 | – | – | – | > 100 | – | – | – | – | – | – | –
21 | O=C(N[C@@H](c1ccc(Cl)c(Cl)c1)C1CNC1)c1ccc2cnccc2c1 | 3.06 | 5.07 | 12.1 | – | 3.34 | 5.43 | 12 | 2.34 | – | 0.52 | 0.2 | 1.59 | 1.45 | 2.85 | 0.0444 | 0.626 | 0.904 | 0.0676 | –
